From patent US7247646B2, “Benzopyranone compounds, compositions thereof, and methods of treatment therewith” (Signal Pharmaceuticals, LLC, priority 2003, dated 2007)
Values joined by “and” are separate entries in the source; they are usually repeats but may differ in a detail not shown here. Equal values may be shown once.

Key:
Type in all cases: cell-based
[1] = biological target: T1, human ER-α (Homo sapiens, UniProt P03372); assay: Inhibition of IL-6 release from U-2 OS osteosarcoma cells stably transfected with human ER-α; conditions: IL-6 production (ELISA) after 2.5 ng/ml TNFα and 1 ng/ml IL-1β stimulation, 24 h; compound 0.01–1000 nM; vehicle = 100%; read-out: IC50 (nM) U2 OS (ER-α)
T1 construct: stably transfected with expression vectors for human full-length ER-α or ER-β; expressed in transfected cells
T1 sequence (P03372 1-595): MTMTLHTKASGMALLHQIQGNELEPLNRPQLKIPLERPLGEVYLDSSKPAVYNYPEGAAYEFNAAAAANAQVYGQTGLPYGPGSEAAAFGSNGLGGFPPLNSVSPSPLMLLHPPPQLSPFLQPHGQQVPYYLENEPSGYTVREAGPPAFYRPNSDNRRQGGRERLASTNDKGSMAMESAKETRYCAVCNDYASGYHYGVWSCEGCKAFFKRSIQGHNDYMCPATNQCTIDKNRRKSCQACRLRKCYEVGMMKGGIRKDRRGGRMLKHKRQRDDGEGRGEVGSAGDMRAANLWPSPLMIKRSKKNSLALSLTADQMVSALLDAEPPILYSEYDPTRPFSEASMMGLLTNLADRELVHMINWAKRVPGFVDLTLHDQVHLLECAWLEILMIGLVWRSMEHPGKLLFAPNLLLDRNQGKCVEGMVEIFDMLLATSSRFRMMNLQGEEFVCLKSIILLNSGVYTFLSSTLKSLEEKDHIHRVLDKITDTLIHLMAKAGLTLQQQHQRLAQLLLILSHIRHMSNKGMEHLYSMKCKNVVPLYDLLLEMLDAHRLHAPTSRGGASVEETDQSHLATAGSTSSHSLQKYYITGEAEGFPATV
Experimental: (§1) Illustrative Benzopyranone Compounds were tested for their ability to inhibit IL-6 release from human U-2 OS osteosarcoma cells stably transfected with human ER-α or ER-β. (Stein, B.; Yang, M. X. Mol. Cell. Biol 15: 4971–4979, 1995; Poli, V. et. al., EMBO J. 13:1189–1196, 1994). […] Benzopyranone Compounds having an IC50<100 nM are particularly useful as bone resorption inhibitors in vivo. Accordingly, the Benzopyranone Compounds, are particularly useful for the treatment of osteoporosis, Paget's disease and metastatic bone cancer. These Benzopyranone Compounds are also useful as anti-cancer agents, since elevated IL-6 levels are responsible for certain cancers such as multiple myeloma, prostate cancer, ovarian cancer, renal carcinoma and cervical carcinoma.
(§2) Human U-2 OS osteosarcoma cells (ATCC) were stably transfected with expression vectors for human full-length ER-α or ER-β using standard molecular biology techniques. Stable subclones were generated that expressed high levels of ER-α or ER-β mRNA. The expression of ER-α or ER-β was confirmed using RNase protection analysis.
(§3) Cells were plated into 96-well plates at a density of 80,000 cells per well in phenol red-free media with charcoal-stripped fetal calf serum. Twenty four hours later, cells were either treated with vehicle (0.2% DMSO) or a Benzopyranone Compound (0.01–1000 nm in 0.2% DMSO). Thirty minutes later cells were stimulated with 2.5 ng/ml TNFα and 1 ng/ml IL-1β. Twenty-four hours later the media supernatant was analyzed for cytokine production (IL-6) using commercially available ELISA kits following the manufacturer's instructions. Cytokine production in the presence of vehicle (0.2% DMSO) was set to 100%.
(§4) The results (Table 2) are expressed as an IC50 (nM) value which is the concentration of the Benzopyranone Compound sufficient to inhibit the production of IL-6 50% relative to the amount of IL-6 produced in the presence of vehicle.

[2] = tested on: MCF-7 breast cancer cells; assay: Inhibition of 17β-estradiol-dependent MCF-7 breast cancer cell proliferation (3H-thymidine incorporation); conditions: Homo sapiens, MCF7; with 0.1 nM 17β-estradiol, 72 h, then 3H-thymidine 4 h; compound 0.1–1000 nM
Experimental: MCF-7 cells represent an excellent in vitro system to study the effects of compounds on estrogen-dependent breast cancer growth. (May, F. E. B.; Westley, B. R. J. Biol. Chem. 262:15894–15899, 1987). Benzopyranone Compounds having an IC50<100 nM are particularly useful as anti-breast cancer agents in vivo.
MCF-7 breast carcinoma cells were plated in 24-well dishes at a density of 5×10^3 cells/well in phenol-red free DMEM:F-12 (1:1) medium containing 1% antibiotics, 0.05% mercaptoethanol, 0.01% ethanolamine, 0.42 ng/mL sodium selenite and 5% charcoal-stripped FCS.
Illustrative Benzopyranone Compounds (0.1–1000 nM in 0.2% DMSO) and 0.1 nM 17β-estradiol were added to the cultured MCF-7 breast cancer cells for 72 h. Subsequently, ^3H-labeled thymidine was added and its incorporation into cells was measured following 4 h incubation. The results (Table 2) are expressed as an IC50 (nM) value which is the concentration of the Benzopyranone Compound sufficient to inhibit the growth of MCF-7 breast cancer cells by 50% relative to controls.

[3] = biological target: T2, human ER-β (Homo sapiens, UniProt Q92731); assay: Inhibition of IL-6 release from U-2 OS osteosarcoma cells stably transfected with human ER-β; conditions: IL-6 production (ELISA) after 2.5 ng/ml TNFα and 1 ng/ml IL-1β stimulation, 24 h; compound 0.01–1000 nM; vehicle = 100%; read-out: IC50 (nM) U2 OS (ER-β)
T2 construct: stably transfected with expression vectors for human full-length ER-α or ER-β; expressed in transfected cells
Experimental: as §1, §2, §3, §4

T2 sequence (Q92731 whole entry): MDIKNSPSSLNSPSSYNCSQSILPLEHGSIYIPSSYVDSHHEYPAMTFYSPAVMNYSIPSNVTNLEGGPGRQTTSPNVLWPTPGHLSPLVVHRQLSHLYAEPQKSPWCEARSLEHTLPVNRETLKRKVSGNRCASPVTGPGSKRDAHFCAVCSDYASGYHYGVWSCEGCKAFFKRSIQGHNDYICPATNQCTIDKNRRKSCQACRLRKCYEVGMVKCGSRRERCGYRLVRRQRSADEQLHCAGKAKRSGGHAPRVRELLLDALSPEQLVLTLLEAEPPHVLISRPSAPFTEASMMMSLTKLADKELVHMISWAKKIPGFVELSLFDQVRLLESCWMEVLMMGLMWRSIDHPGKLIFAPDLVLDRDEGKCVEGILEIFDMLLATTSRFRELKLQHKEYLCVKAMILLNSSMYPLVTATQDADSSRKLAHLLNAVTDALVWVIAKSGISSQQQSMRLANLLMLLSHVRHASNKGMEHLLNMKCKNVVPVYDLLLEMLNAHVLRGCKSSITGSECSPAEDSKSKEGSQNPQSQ

| SMILES | IC50 [1] | IC50 [2] | IC50 [3] |
| --- | --- | --- | --- |
| Cc1c(O)ccc2c(Cc3ccc(OCCN4CCCC4)cc3)c(-c3ccc(C(F)(F)F)cc3)c(=O)oc12 | 55.5 nM | 235 nM | < 1000 nM |
| N#Cc1c(O)ccc2c(Cc3ccc(OCCN4CCCC4)cc3)c(-c3ccc(C(F)(F)F)cc3)c(=O)oc12 | 390 nM |  | > 1000 nM |
| CC(O)c1cc2c(Cc3ccc(OCCN4CCCC4)cc3)c(-c3ccc(C(F)(F)F)cc3)c(=O)oc2cc1O (stereo not shown) | 850 nM and > 1000 nM |  | > 1000 nM |
| Cc1c(O)ccc2c(Cc3ccc(OCCN4CCCC4)cc3)c(-c3ccc(Cl)cc3)c(=O)oc12 | 285 nM | < 1000 nM | < 1000 nM |
| Cc1cc2c(Cc3ccc(OCCN4CCCC4)cc3)c(-c3ccc(C(F)(F)F)cc3)c(=O)oc2cc1O | 13.3 nM | 59.5 nM | > 1000 nM |
| O=c1oc2cc(O)c(Br)cc2c(Cc2ccc(OCCN3CCCC3)cc2)c1-c1ccc(C(F)(F)F)cc1 | 310 nM and > 1000 nM | > 1000 nM | > 1000 nM |
| Cc1c(O)ccc2c(Cc3ccc(OCCN4CCCC4)cc3)c(-c3ccc(Cl)cc3Cl)c(=O)oc12 | 6.9 nM | 35 nM | < 1000 nM |
| Cc1cc2c(Cc3ccc(OCCN4CCCC4)cc3)c(-c3ccc(Cl)cc3Cl)c(=O)oc2cc1O | 1.7 nM | 10 nM | > 1000 nM |
| CC(=O)c1c(O)ccc2c(Cc3ccc(OCCN4CCCC4)cc3)c(-c3ccc(C(F)(F)F)cc3)c(=O)oc12 | 39 nM | 185 nM | < 1000 nM |
| CC(=O)c1cc2c(Cc3ccc(OCCN4CCCC4)cc3)c(-c3ccc(C(F)(F)F)cc3)c(=O)oc2cc1O | 850 nM and > 1000 nM | > 1000 nM | > 1000 nM |
| CC(=O)c1c(O)ccc2c(Cc3ccc(OCCN4CCCC4)cc3)c(-c3ccc(Cl)cc3Cl)c(=O)oc12 | 5 nM | 112 nM | < 1000 nM |
